Test results reported in article PMC6528465 (ACS infectious diseases, 2018).

Assays:
[1] = tested on: Mtb H37Rv; format: cell-based, Mycobacterium tuberculosis; settings: no inhibitor
[2] = tested on: J774A.1 (macrophage); assay: Mammalian cytotoxicity J774A.1; format: cell-based; settings: 1% v/v in 0.5% DMSO
[3] = tested on: A549 (lung); assay: Mammalian cytotoxicity A549; format: cell-based; settings: 1% v/v in 0.5% DMSO
[4] = tested on: HEK-293 (kidney); assay: Mammalian cytotoxicity HEK-293; format: cell-based; settings: 1% v/v in 0.5% DMSO

Row | Compound | H37RV MICKAN [1] | cell survival (positive control) [2] | cell survival (positive control) [3] | cell survival (positive control) [4]
1 | NC[C@H]1O[C@H](O[C@H]2[C@H](O)[C@@H](O[C@H]3O[C@H](CO)[C@@H](O)[C@H](N)[C@H]3O)[C@H](N)C[C@@H]2N)[C@H](O)[C@@H](O)[C@@H]1O [KAN, kanamycin] | <1.25 µg/mL |  |  | 
2 | Triton-X 100 |  | < 5% | < 5% | < 5%
